Test results taken from patent US20240000680A1, “MONO-HYDROXY OR DI-HYDROXY DERIVATIVES OF POLYUNSATURATED FATTY ACIDS, PRODUCTION METHOD THEREFOR, AND USE THEREOF” (KOLON INDUSTRIES, INC., priority 2019, published 2024).
“And” between values parts separate entries of the source, which are not always exact repeats. Equal values may be shown once.

Tests used:
Type in all cases: cell-based
procollagen = assay: Procollagen synthesis in human dermal fibroblasts (PIP EIA), Example 7; conditions: for Procollagen synthesis (% of control) Average: 24 hours; for Procollagen synthesis (% of control) Average / amount of procollagen (Table 10, single component vs complex composition): untreated control = 100; for amount of procollagen compared to untreated control group: single components, Table 8 concentrations; for amount of procollagen (Table 10, single component vs complex composition): concentration not given in Table 10; for amount of procollagen compared to positive control group (50 μM of retinyl palmitate): at a concentration of 1 μg/ml or more
Excerpt: Collagen, a major component of the extracellular matrix, is synthesized in the form of a precursor called procollagen. The procollagen is known to be cut and isolated from collagen molecules when a polymerization reaction occurs. By measuring the amount of procollagen, the degree of collagen biosynthesis in the cells may be estimated.
[…] In this connection, the effect of the SPM single component and its complex compositions (compositions 1 to 3) was identified by using a case in which nothing was treated as an untreated control group and a case in which 50 μM of retinyl palmitate was treated as Con(+).

MMP-1 [1] = assay: Collagenase (MMP-1) expression inhibition in UVB-irradiated human dermal fibroblasts (ELISA), Example 4-4; conditions: 6 ppm; UVB 100 mJ/cm^2; 48 hours
Protocol: (§1) MMPs (matrix metalloproteinases) are enzymes with proteolytic activity, and by decomposing proteins constituting the extracellular matrix, they have an important effect on the binding of cells and proteins constituting the extracellular matrix. There are 28 types of MMPs, of which MMP-1 is an enzyme that decomposes collagen. In this example, the expression level of MMP-1 in cells was identified.
After culturing human dermal fibroblasts for 24 hours, the medium was exchanged with DPBS (WelGENE) at a concentration of 250 μl/well, and irradiated with 100 mJ/cm^2 of UVB. Then, the SPM 1 and SPM 2 were treated with DMEM (2% FBS) diluted to a concentration of 0.01, 0,1 and 1 ppm, respectively, and cultured for 48 hours. After collecting the cultured cell medium, the amount of MMP-1 was measured using a human total MMP-1 ELISA kit (R&D systems, DY901). At this connection, the effect of the two reaction products SPM 1 and SPM 2 was identified by using a case in which nothing was treated as a negative control group and a case in which 6 ppm of retinoic acid was treated as a positive control group.

MMP-1 [2] = assay: Collagenase (MMP-1) expression inhibition in UVB-irradiated human dermal fibroblasts, Example 8; conditions: 20 μM; UVB 100 mJ/cm^2; 48 hours
Protocol: as §1
Specifically, after culturing human dermal fibroblasts for 24 hours, the medium was exchanged with DPBS (WelGENE) at a concentration of 250 μl/well, and irradiated with 100 mJ/cm^2 of UVB. Then, the composition 2 was treated with DMEM (2% FBS) diluted to a concentration of 0.1, 1, 2, and 5 ppm, respectively, and cultured for 48 hours. After collecting the cultured cell medium, the amount of MMP-1 was measured using a human total MMP-1 ELISA kit (R&D systems, DY901). At this connection, the effect of composition 2 was identified by using a case in which nothing was treated as a negative control group and a case in which 20 μM of retinoic acid was treated as a positive control group.

IL-6 [3] = assay: IL-6 expression in UVB-irradiated HaCaT human keratinocytes (ELISA), Example 6; conditions: for IL-6 expression (% of control) Average: UVB +; for IL-6 expression (% of control) Average / expression of IL-6 (Table 7, single component vs complex composition): Con(−) = 100; for reduction of expression of IL-6 compared to Con(−): after UVB irradiation; for expression of IL-6 (Table 7, single component vs complex composition): UVB 20 mJ/cm^2
Protocol: In order to identify the synergistic anti-inflammation relieving effect of the SPMs complex composition, the complex compositions (Complexes 1 to 3) of 17-HDHA, Resolvin D5, and Protectin DX and each SPM single material were treated with HaCaT cells, which are human keratinocytes to identify changes in IL-6 expression.
Specifically, first, human keratinocytes were aliquoted in a 48-well plate at a concentration of 4×10^4 cells/well and cultured at 5% CO2, 37° C. for 24 hours, and then the medium was removed and the starvation state was maintained with DMEM Serum Free media for 24 hours.
The SPMs complex composition was diluted with DMEM (FBS 2%) to make 0.5, 1, 2, and 5 μg/ml, and then cultured as above and treated with human keratinocytes from which the medium was removed for 1 hour. […] In addition, after collecting the medium, the amount of IL-6 was measured using Human IL-6 DuoSet ELISA (R&D system). The cells adhering to the bottom were washed with DPBS, dissolved with 1N NaOH, and the amount of protein was measured through BCA analysis to measure the amount of IL-6 synthesized per a given protein. In this connection, the IL-6 expression inhibitory effect of the SPMs complex composition of the present invention and each single component was identified by using a case in which nothing was treated as Con(−) and a case in which 10 μM of hydrocortisone was treated as Con(+) after UVB irradiation.

TNF-α [4] = assay: TNF-α expression inhibition in UVB-irradiated human keratinocytes, Example 9; conditions: 10 μM; UVB 160 mJ/cm^2; 24 hours
Protocol: Specifically, human keratinocytes were aliquoted in a 48-well plate at a concentration of 4×10^4 cells/well and cultured for 24 hours at 5% CO2 and 37° C., then the medium was removed and starvation state was maintained with DMEM Serum Free media for 24 hours.
The composition 2 was diluted with DMEM (2% FBS) to make 0.5, 1, 2, and 5 μg/ml, and then cultured as above and treated with human keratinocytes from which the medium was removed for 1 hour. Then, for TNF-α expression, the medium was exchanged with 250 μl of DPBS (WelGENE), irradiated with 160 mJ/cm^2 of UVB, and then treated with the SPMs again and cultured for 24 hours. In addition, after collecting the medium, the amount of TNF-α was measured using Human TNF-α DuoSet ELISA (R&D system), respectively. The cells adhering to the bottom were washed with DPBS, dissolved with 1N NaOH, and the amount of protein was measured through BCA analysis to measure the amount of TNF-α synthesized per a given protein. In this connection, the effect of the SPMs complex composition was identified by using a case in which nothing was treated as a negative control group and a case in which 10 μM of hydrocortisone was treated as a positive control group.

TNF-α [5] = assay: TNF-α expression inhibition in UVB-irradiated human keratinocytes (ELISA), Example 4-2; conditions: 10 ppm; UVB 160 mJ/cm^2; 24 hours
Protocol: (§2) Human keratinocytes were aliquoted in a 48-well plate at a concentration of 4×10^4 cells/well and cultured for 24 hours at 5% CO2 and 37° C., then the medium was removed and starvation state was maintained with DMEM Serum Free media for 24 hours.
(§3) The SPM 1 and SPM 2 were diluted with DMEM (2% FBS) to make 1 ppm, and then diluted sequentially to 0.1, 0.01 and 0.001 ppm, and then cultured as above and treated with human keratinocytes from which the medium was removed for 1 hour. Then, for TNF-α or IL-6 expression, the medium was exchanged with 250 μl of DPBS (WelGENE), irradiated with 160 mJ/cm^2 of UVB, and then treated with the SPM 1 and SPM 2 again and cultured for 24 hours. In addition, after collecting the medium, the amount of TNF-α was measured using Human TNF-α DuoSet ELISA (R&D system), and the amount of IL-6 was measured using Human IL-6 DuoSet ELISA (R&D system), respectively. The cells adhering to the bottom were washed with DPBS, dissolved with 1N NaOH, and the amount of protein was measured through BCA analysis to measure the amount of TNF-α or IL-6 synthesized per a given protein. In this connection, the effect of the two reaction products SPM 1 and SPM 2 was identified by using a case in which nothing was treated as a negative control group and a case in which 10 ppm of dexamethasone was treated as a positive control group.

IL-6 [6] = assay: IL-6 expression inhibition in UVB-irradiated human keratinocytes (ELISA), Example 4-2; conditions: 10 ppm; UVB 160 mJ/cm^2; 24 hours
Protocol: as §2, §3

| Structure (SMILES) | IL-6 expression (% of control) Average (IL-6 [3]; 0.1 μg/ml) | IL-6 expression (% of control) Average (IL-6 [3]; 1 μg/ml) | IL-6 expression (% of control) Average (IL-6 [3]; 2 μg/ml) | reduction of expression of IL-6 compared to Con(−) (IL-6 [3]; 2 μg/ml) [%] | IL-6 expression (% of control) Average (IL-6 [3]; 5 μg/ml) | expression of IL-6 (Table 7, single component vs complex composition) (IL-6 [3]; 2 μg/ml) | Procollagen synthesis (% of control) Average (procollagen; 0.01 μg/ml) | Procollagen synthesis (% of control) Average (procollagen; 0.1 μg/ml) | Procollagen synthesis (% of control) Average (procollagen; 1 μg/ml) | Procollagen synthesis (% of control) Average (procollagen; 2 μg/ml) | amount of procollagen compared to untreated control group (procollagen) | amount of procollagen (Table 10, single component vs complex composition) (procollagen) | other results |
| --- | --- | --- | --- | --- | --- | --- | --- | --- | --- | --- | --- | --- | --- |
| CCCCCCCCCCCCCCCC(=O)OC/C=C(C)/C=C/C=C(C)/C=C/C1=C(C)CCCC1(C)C [Con(+) R.P., retinyl palmitate, reference compound] | – | – | – | – | – | – | – | – | – | – | – | – | Procollagen synthesis (% of control) Average (procollagen; 50 μM): 249.88 % of control and 240.2 % of control |
| CC1=C(/C=C/C(C)=C/C=C/C(C)=C/C(=O)O)C(C)(C)CCC1 [retinoic acid] | – | – | – | – | – | – | – | – | – | – | – | – | reduction of UVB-increased expression of MMP-1 (MMP-1 [1]): about 70%; reduction of UVB-increased expression of MMP-1 (MMP-1 [2]): about 70% |
| C[C@]12CCC(=O)C=C1CC[C@@H]1[C@@H]2[C@@H](O)C[C@@]2(C)[C@H]1CC[C@]2(O)C(=O)CO [Con(+) H.C., hydrocortisone, reference compound] | – | – | – | – | – | – | – | – | – | – | – | – | IL-6 expression (% of control) Average (IL-6 [3]; 10 μM): 31.23 % of control and 42.82 % of control; reduction of UVB-increased expression of TNF-α (TNF-α [4]): about 52% |
| C[C@@H]1C[C@H]2[C@@H]3CCC4=CC(=O)C=C[C@]4(C)[C@@]3(F)[C@@H](O)C[C@]2(C)[C@@]1(O)C(=O)CO [dexamethasone] | – | – | – | – | – | – | – | – | – | – | – | – | reduction of UVB-increased expression of TNF-α (TNF-α [5]): about 35%; reduction of UVB-increased expression of IL-6 (IL-6 [6]): about 88% |
| CC/C=C\CC(O)/C=C/C=C\C/C=C\C/C=C\C/C=C\CCC(=O)O (racemic) [Composition 17S-HDHA, (±) 17-hydroxy (dihydroxy)-4Z, 7Z, 10Z, 13Z, 15E, 19Z-docosahexaenoic acid] | 89.63 % of control | 83 % of control | 89.17 % of control | 10.8 | 81.66 % of control | 89.17 | 212.76 % of control | 237.76 % of control | 235.8 % of control | 255.32 % of control | greater amount of procollagen than the untreated control group | 255.32 | – |
| CC/C=C\C[C@H](O)/C=C/C=C\C/C=C\C=C\[C@@H](O)C/C=C\CCC(=O)O [RvD5, 7S, 17S-dihydroxy-4Z, 8E, 10Z, 13Z, 15E, 19Z-docosahexaenoic acid] | 99.58 % of control | 109.86 % of control | 99.49 % of control | 0.5 | 83.38 % of control | 99.49 | 245.68 % of control | 248 % of control | 249.34 % of control | 255.32 % of control | greater amount of procollagen than the untreated control group | 255.32 | amount of procollagen compared to positive control group (50 μM of retinyl palmitate) (procollagen): greater amount of procollagen was identified compared to the positive control group |
| CC/C=C\C[C@H](O)/C=C/C=C\C=C\[C@@H](O)C/C=C\C/C=C\CCC(=O)O [PDX, 10S, 17S-dihydroxy-4Z,7Z,11E,13Z,15E,19Z-docosahexaenoic acid] | 95.36 % of control | 102.69 % of control | 88.13 % of control | 11.8 | 86.72 % of control | 88.13 | 237.15 % of control | 244.1 % of control | 251.41 % of control | 254.1 % of control | greater amount of procollagen than the untreated control group | 254.1 | amount of procollagen compared to positive control group (50 μM of retinyl palmitate) (procollagen): greater amount of procollagen was identified compared to the positive control group |
